Laboratory results reported in patent US20260274856A1, “COVALENT CEREBLON LIGANDS” (C4 THERAPEUTICS, INC., priority 2023, published 2026).
Like-named read-outs stand apart in the source and are kept apart here.

Molecular target: mutant BRAF V600E (Homo sapiens, UniProt P15056, V600E)
Test: BRAF V600E HiBiT Degradation Assay in A375.10 cells
Settings: for HiBIT-Degradation A375.10 BRAF 24 hours IP nM / DC50 / HiBIT-Degradation A375.10 BRAF 2 hours IP nM: A375.10 cells; for HiBIT-Degradation A375.10 BRAF 24 hours IP nM / HiBIT-Degradation A375.10 BRAF 2 hours IP nM: inflection point of the dose-response curve
[1] = read-out: HiBIT-Degradation A375.10 BRAF 24 hours DC50 nM, 24 hours
[2] = read-out: HiBIT-Degradation A375.10 BRAF 24 hours Emax
[3] = read-out: HIBIT-Degradation A375.10 BRAF 2 hours DC50 nM, 2 hours
[4] = read-out: HiBIT-Degradation A375.10 BRAF 2 hours Emax

Sequence of mutant BRAF V600E (P15056 whole entry V600E): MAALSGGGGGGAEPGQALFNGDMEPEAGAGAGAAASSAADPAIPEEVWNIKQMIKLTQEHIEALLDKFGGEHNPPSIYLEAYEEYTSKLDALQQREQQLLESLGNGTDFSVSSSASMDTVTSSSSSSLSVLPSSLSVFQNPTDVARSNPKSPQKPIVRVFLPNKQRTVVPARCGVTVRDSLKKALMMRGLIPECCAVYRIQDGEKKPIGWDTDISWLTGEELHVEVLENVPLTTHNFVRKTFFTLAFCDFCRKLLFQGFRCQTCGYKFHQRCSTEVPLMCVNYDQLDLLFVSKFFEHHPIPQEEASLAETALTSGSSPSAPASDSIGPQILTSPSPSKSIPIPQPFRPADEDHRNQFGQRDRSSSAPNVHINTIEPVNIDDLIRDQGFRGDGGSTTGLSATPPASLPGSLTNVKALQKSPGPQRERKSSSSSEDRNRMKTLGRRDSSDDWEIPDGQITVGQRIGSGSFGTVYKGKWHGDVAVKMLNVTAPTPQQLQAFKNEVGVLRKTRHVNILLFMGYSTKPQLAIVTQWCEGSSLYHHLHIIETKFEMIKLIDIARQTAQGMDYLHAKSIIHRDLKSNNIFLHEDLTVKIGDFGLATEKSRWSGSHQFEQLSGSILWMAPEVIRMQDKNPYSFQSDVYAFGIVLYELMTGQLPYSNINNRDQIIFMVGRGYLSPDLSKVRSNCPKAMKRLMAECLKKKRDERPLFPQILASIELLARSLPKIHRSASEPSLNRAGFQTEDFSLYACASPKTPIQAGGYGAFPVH
Procedure: Compounds of this invention were tested for degradation of mutant BRAF V600E using the HiBiT assay, a luminescence-based assay for quantification of cellular protein levels using the Nano-Glo@HiBiT Lytic Detection System (Catalog No. N3050, Promega, Madison, WI USA). This assay utilizes the HiBiT tag on a protein of interest, which creates a luminescent signal in the presence of a complementing peptide and its substrate, the quantification of which 10 is proportional to the amount of HiBiT-tagged protein in the cell.
A375 cells were engineered to express HiBiT tagged BRAF V600E by CRISPR knock-in of the HiBiT tag to the endogenous BRAF V600E locus, followed by selection of a clonal population containing 15 the appropriate knock-in (referred to here as cell line A375.10). […] Cell culture flasks and 384-well microplates 20 were acquired from VWR (Radnor, PA, USA).
Plates were then spun briefly, and cells were incubated with compound at 37° C. for 2 hoursor 24 hours.
Following the appropriate treatment time, Nano-Glo® HiBiT Lytic Assay reagents were added to the cells per the manufacturer's instructions by adding 30ul of reagent per well, and 10 the luminescence signal was acquired by plate reader. Cells treated with DMSO only (no test compound treatment) were used as the negative control (N). Media only (no cells added) with Nano-Glo reagent addition was used as the background or positive control (P). The percent response of compound treated samples were calculated by subtracting out the background signal (P) and normalizing to the DMSO control (N) as follows. % Response=100 x (Treated Signal - Average (P))/(Average (N) - Average (P)).
Data were analyzed with a 4-parameter logistic fit to generate sigmoidal dose-response curves. […] The Emax, or maximum effect of each compound, represents the amount of residual protein remaining in the cell following compound treatment.
The experiment was conducted at least once for each compound. If the experiment was conducted multiple times, the data shown in the table is the average of the two or more experiments.

Row | SMILES | HiBIT-Degradation A375.10 BRAF 24 hours IP nM (24 hours) | DC50 [1] [nM] | Emax [2] [%] | HiBIT-Degradation A375.10 BRAF 2 hours IP nM (2 hours) | DC50 [3] [nM] | Emax [4] [%]
1 | CCN(C)S(=O)(=O)Nc1ccc(F)c(Oc2ccc3ncn([C@H]4COC5(CCN(C(=O)CN6CCC(c7ccc(OC8CCC(=O)NC8=O)cc7OS(C)(=O)=O)CC6)CC5)C4)c(=O)c3c2)c1C#N (some centres unmarked) [drawing 1224] | *** (<= 1 μM is ***) | 1000 to 10000 | < 60 | – | – | –
2 | CCN(C)S(=O)(=O)Nc1ccc(F)c(Oc2ccc3ncn([C@H]4COC5(CCN(C(=O)CN6CCN(c7ccc(C8CCC(=O)NC8=O)cc7OS(=O)(=O)F)CC6)CC5)C4)c(=O)c3c2)c1C#N (some centres unmarked) [drawing 1212] | *** (<= 1 μM is ***) | < 1000 | < 60 | – | – | –
3 | CCN(C)S(=O)(=O)Nc1ccc(F)c(Oc2ccc3ncn([C@@H]4COC5(CCN(C(=O)CN6CCC(c7ccc(OC8CCC(=O)NC8=O)cc7OS(C)(=O)=O)CC6)CC5)C4)c(=O)c3c2)c1C#N (some centres unmarked) [drawing 1206] | – | – | – | ** (<10 μM and >1 μM is **) | > 10000 | 60 to 95
4 | CCN(C)S(=O)(=O)Nc1ccc(F)c(Oc2ccc3ncn([C@@H]4COC5(CCN(C(=O)CN6CCC(c7ccc(N8CCC(=O)NC8=O)cc7OS(C)(=O)=O)CC6)CC5)C4)c(=O)c3c2)c1C#N [drawing 1219] | *** (<= 1 μM is ***) | < 1000 | < 60 | – | – | –
5 | CCN(C)S(=O)(=O)Nc1ccc(F)c(Oc2ccc3ncn([C@@H]4COC5(CCN(C(=O)CN6CCC(c7ccc(C8CCC(=O)NC8=O)cc7OS(=O)(=O)F)CC6)CC5)C4)c(=O)c3c2)c1C#N (some centres unmarked) [drawing 1210] | *** (<= 1 μM is ***) | < 1000 | < 60 | – | – | –
6 | CCN(C)S(=O)(=O)Nc1ccc(F)c(Oc2ccc3ncn([C@@H]4COC5(CCN(C(=O)CN6CCC(c7ccc(OC8CCC(=O)NC8=O)cc7OS(=O)(=O)F)CC6)CC5)C4)c(=O)c3c2)c1C#N (some centres unmarked) [drawing 1201] | – | – | – | *** (<= 1 μM is) | 1000 to 10000 | 60 to 95
7 | CCN(C)S(=O)(=O)Nc1ccc(F)c(Oc2ccc3ncn([C@@H]4COC5(CCN(C(=O)CN6CCC(c7ccc(OC8CCC(=O)NC8=O)cc7OS(=O)(=O)F)CC6)CC5)C4)c(=O)c3c2)c1C#N (some centres unmarked) [drawing 1228] | ** (<10 μM and >1 μM is **) | 1000 to 10000 | < 60 | – | – | –
8 | CCN(C)S(=O)(=O)Nc1ccc(F)c(Oc2ccc3ncn([C@@H]4COC5(CCN(C(=O)CN6CCN(c7ccc(N8CCC(=O)NC8=O)cc7OS(=O)(=O)F)CC6)CC5)C4)c(=O)c3c2)c1C#N [drawing 1195] | – | – | – | * (>=10 μM is *) | > 10000 | 60 to 95
9 | CCN(C)S(=O)(=O)Nc1ccc(F)c(Oc2ccc3ncn([C@H]4COC5(CCN(C(=O)CN6CCC(c7ccc(OC8CCC(=O)NC8=O)cc7S(=O)(=O)F)CC6)CC5)C4)c(=O)c3c2)c1C#N (some centres unmarked) [drawing 1200] | – | – | – | *** (<= 1 μM is) | 1000 to 10000 | 60 to 95
10 | CCN(C)S(=O)(=O)Nc1ccc(F)c(Oc2ccc3ncn([C@H]4COC5(CCN(C(=O)CN6CCC(c7ccc(NC8CCC(=O)NC8=O)cc7OS(C)(=O)=O)CC6)CC5)C4)c(=O)c3c2)c1C#N (some centres unmarked) [drawing 1217] | *** (<= 1 μM is ***) | < 1000 | < 60 | – | – | –
11 | CCN(C)S(=O)(=O)Nc1ccc(F)c(Oc2ccc3ncn([C@H]4COC5(CCN(C(=O)CN6CCC(c7ccc(OC8CCC(=O)NC8=O)cc7S(=O)(=O)F)CC6)CC5)C4)c(=O)c3c2)c1C#N (some centres unmarked) [drawing 1225] | ** (<10 μM and >1 μM is **) | > 10000 | 60 to 95 | – | – | –
12 | CCN(C)S(=O)(=O)Nc1ccc(F)c(Oc2ccc3ncn([C@H]4COC5(CCN(C(=O)CN6CCN(c7ccc(N8CCC(=O)NC8=O)cc7OS(=O)(=O)F)CC6)CC5)C4)c(=O)c3c2)c1C#N [drawing 1194] | – | – | – | * (>=10 μM is *) | > 10000 | > 95
13 | CCN(C)S(=O)(=O)Nc1ccc(F)c(Oc2ccc3ncn([C@H]4COC5(CCN(C(=O)CN6CCC(c7ccc(NC8CCC(=O)NC8=O)cc7S(=O)(=O)F)CC6)CC5)C4)c(=O)c3c2)c1C#N (some centres unmarked) [drawing 1215] | *** (<= 1 μM is ***) | < 1000 | < 60 | – | – | –
14 | CCN(C)S(=O)(=O)Nc1ccc(F)c(Oc2ccc3ncn([C@H]4COC5(CCN(C(=O)CN6CCN(c7ccc(C8CCC(=O)NC8=O)cc7OS(=O)(=O)F)CC6)CC5)C4)c(=O)c3c2)c1C#N (some centres unmarked) [drawing 1191] | – | – | – | *** (<= 1 μM is) | 1000 to 10000 | < 60
15 | CCN(C)S(=O)(=O)Nc1ccc(F)c(Oc2ccc3ncn([C@H]4COC5(CCN(C(=O)CN6CCC(c7ccc(OC8CCC(=O)NC8=O)cc7OS(=O)(=O)F)CC6)CC5)C4)c(=O)c3c2)c1C#N (some centres unmarked) [drawing 1196] | – | – | – | *** (<= 1 μM is) | 1000 to 10000 | < 60
16 | CCN(C)S(=O)(=O)Nc1ccc(F)c(Oc2ccc3ncn([C@H]4COC5(CCN(C(=O)CN6CCC(c7ccc(N8CCC(=O)NC8=O)cc7OS(=O)(=O)F)CC6)CC5)C4)c(=O)c3c2)c1C#N [drawing 1218] | *** (<= 1 μM is ***) | > 10000 | 60 to 95 | – | – | –
17 | CCN(C)S(=O)(=O)Nc1ccc(F)c(Oc2ccc3ncn([C@@H]4COC5(CCN(C(=O)CN6CCC(c7ccc(NC8CCC(=O)NC8=O)cc7OS(C)(=O)=O)CC6)CC5)C4)c(=O)c3c2)c1C#N (some centres unmarked) [drawing 1208] | – | – | – | ** (<10 μM and >1 μM is **) | > 10000 | 60 to 95
18 | CCN(C)S(=O)(=O)Nc1ccc(F)c(Oc2ccc3ncn([C@H]4COC5(CCN(C(=O)CN6CCC(c7ccc(C8CCC(=O)NC8=O)cc7OS(=O)(=O)F)CC6)CC5)C4)c(=O)c3c2)c1C#N (some centres unmarked) [drawing 1190] | – | – | – | *** (<= 1 μM is) | < 1000 | < 60
19 | CCN(C)S(=O)(=O)Nc1ccc(F)c(Oc2ccc3ncn([C@H]4COC5(CCN(C(=O)CN6CCC(c7ccc(C8CCC(=O)NC8=O)cc7OS(=O)(=O)F)CC6)CC5)C4)c(=O)c3c2)c1C#N (some centres unmarked) [drawing 1216] | *** (<= 1 μM is ***) | < 1000 | – | – | – | –
20 | CCN(C)S(=O)(=O)Nc1ccc(F)c(Oc2ccc3ncn([C@@H]4COC5(CCN(C(=O)CN6CCC(c7ccc(NC8CCC(=O)NC8=O)cc7S(=O)(=O)F)CC6)CC5)C4)c(=O)c3c2)c1C#N (some centres unmarked) [drawing 1222] | *** (<= 1 μM is ***) | 1000 to 10000 | < 60 | – | – | –
21 | CCN(C)S(=O)(=O)Nc1ccc(F)c(Oc2ccc3ncn([C@@H]4COC5(CCN(C(=O)CN6CCC(c7ccc(OC8CCC(=O)NC8=O)cc7S(=O)(=O)F)CC6)CC5)C4)c(=O)c3c2)c1C#N (some centres unmarked) [drawing 1221] | *** (<= 1 μM is ***) | < 1000 | < 60 | – | – | –
22 | CCN(C)S(=O)(=O)Nc1ccc(F)c(Oc2ccc3ncn([C@H]4COC5(CCN(C(=O)CN6CCC(c7ccc(C8CCC(=O)NC8=O)cc7OS(=O)(=O)F)CC6)CC5)C4)c(=O)c3c2)c1C#N (some centres unmarked) [drawing 1211] | *** (<= 1 μM is ***) | < 1000 | < 60 | – | – | –
23 | CCN(C)S(=O)(=O)Nc1ccc(F)c(Oc2ccc3ncn([C@H]4COC5(CCN(C(=O)CN6CCC(c7ccc(NC8CCC(=O)NC8=O)cc7S(=O)(=O)F)CC6)CC5)C4)c(=O)c3c2)c1C#N (some centres unmarked) [drawing 1197] | – | – | – | *** (<= 1 μM is) | > 10000 | 60 to 95
